Counter-ions that a name gives are not always drawn.
Experiments:
[1] = cited from earlier work
[2] = biological target: T1, SphK1 (Homo sapiens, UniProt Q9NYA1); assay: biochemical; conditions: read-out: inhibition at SphK1
[3] = biological target: T2, SphK2 (Homo sapiens, UniProt Q9NRA0); assay: biochemical; conditions: for inhibition at 1 µM: read-out: inhibition at SphK2
T2 sequence (Q9NRA0 1-654): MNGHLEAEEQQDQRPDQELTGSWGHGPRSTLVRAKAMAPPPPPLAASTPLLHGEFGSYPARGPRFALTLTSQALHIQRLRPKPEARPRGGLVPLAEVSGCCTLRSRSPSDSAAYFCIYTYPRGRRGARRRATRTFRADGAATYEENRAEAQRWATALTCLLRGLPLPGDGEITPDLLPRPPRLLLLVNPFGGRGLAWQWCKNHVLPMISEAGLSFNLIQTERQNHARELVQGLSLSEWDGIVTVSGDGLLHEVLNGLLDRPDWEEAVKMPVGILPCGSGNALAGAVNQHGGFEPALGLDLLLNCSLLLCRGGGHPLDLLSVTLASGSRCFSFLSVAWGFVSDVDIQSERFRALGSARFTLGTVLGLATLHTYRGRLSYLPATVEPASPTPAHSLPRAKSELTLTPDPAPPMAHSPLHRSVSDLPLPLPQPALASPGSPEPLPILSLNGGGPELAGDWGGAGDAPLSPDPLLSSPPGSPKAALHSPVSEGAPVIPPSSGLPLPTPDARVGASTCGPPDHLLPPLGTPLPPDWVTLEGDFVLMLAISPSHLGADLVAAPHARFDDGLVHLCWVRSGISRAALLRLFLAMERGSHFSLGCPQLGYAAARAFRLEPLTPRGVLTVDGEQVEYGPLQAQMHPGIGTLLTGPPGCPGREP

[4] = biological target: T1, SphK1; conditions: screen at 1 μM
[5] = biological target: T2, SphK2; conditions: screen at 1 μM

T1 sequence (Q9NYA1 whole entry, species assumed): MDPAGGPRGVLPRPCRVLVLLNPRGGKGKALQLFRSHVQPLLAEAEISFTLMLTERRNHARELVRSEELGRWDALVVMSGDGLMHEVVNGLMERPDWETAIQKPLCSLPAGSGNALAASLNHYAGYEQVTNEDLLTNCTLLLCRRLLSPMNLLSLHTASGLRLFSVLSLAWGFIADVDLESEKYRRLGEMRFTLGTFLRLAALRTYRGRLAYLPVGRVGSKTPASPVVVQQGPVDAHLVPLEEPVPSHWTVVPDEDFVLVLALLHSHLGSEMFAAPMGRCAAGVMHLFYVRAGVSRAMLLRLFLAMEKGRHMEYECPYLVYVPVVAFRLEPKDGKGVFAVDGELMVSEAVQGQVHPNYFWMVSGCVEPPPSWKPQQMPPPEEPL

Row | inhibition at 1 µM [2] [%] | inhibition at 1 µM [3] [%] | inhibitory activity at SphK1 [4] | inhibitory activity at SphK2 [5] | Compound | also measured
1 | – | – | inactive | inactive | CCCCCCCCCCc1ccc(NC(=O)[C@@H]2CCCN2C(=N)N)cc1.O=C(O)C(F)(F)F [Compound 29a, (S)-Amino(2-((4-decylphenyl)carbamoyl)pyrrolidin-1-yl)-methaniminium 2,2,2-Trifluoroacetate] | –
2 | – | – | inactive | inactive | CCCCCCCCCCc1ccc(NC(=O)[C@H]2CCCN2C(=N)N)cc1.O=C(O)C(F)(F)F [Compound 29b, (R)-Amino(2-((4-decylphenyl)carbamoyl)pyrrolidin-1-yl)-methaniminium 2,2,2-Trifluoroacetate] | –

The remaining lines, values behind:

Row | Compound | inhibition at 1 µM [2] [%] | inhibition at 1 µM [3] [%] | inhibitory activity at SphK1 [4] | inhibitory activity at SphK2 [5] | also measured
3 | O=C(NCc1ccncc1)C12CC3CC(C1)CC(c1ccc(Cl)cc1)(C3)C2 [ABC294640] | – | – | – | – | S1P levels in vivo [1]: decreased
4 | CCCCCCCCc1ccc(-c2noc(CNC(=N)N)n2)cc1 [Compound 7a, 1-((3-(4-Octylphenyl)-1,2,4-oxadiazol-5-yl)methyl)guanidine Hydrochloride] | < 20 | < 20 | – | – | –
5 | CCCCCCCCc1ccc(-c2noc(CN(C)C(=N)N)n2)cc1.Cl [Compound 7b, 1-Methyl-1-((3-(4-octylphenyl)-1,2,4-oxadiazol-5-yl)methyl)-guanidine Hydrochloride] | – | – | inactive | inactive | –
6 | CCCCCCCCc1ccc(-c2noc([C@H](C)NC(=N)N)n2)cc1 [Compound 7c, (S)-1-(1-(3-(4-Octylphenyl)-1,2,4-oxadiazol-5-yl)ethyl)-guanidine Hydrochloride] | < 20 | < 20 | – | – | –
7 | CCCCCCCCc1ccc(-c2noc([C@@H](NC(=N)N)C(C)C)n2)cc1 [Compound 7d, (S)-1-(2-Methyl-1-(3-(4-octylphenyl)-1,2,4-oxadiazol-5-yl)-propyl)guanidine Hydrochloride] | < 20 | < 20 | – | – | –
8 | CCCCCCCCc1ccc(-c2noc([C@H](CO)NC(=N)N)n2)cc1 [Compound 7e, (S)-Amino((2-hydroxy-1-(3-(4-octylphenyl)-1,2,4-oxadiazol-5-yl)ethyl)amino)methaniminium Chloride] | < 20 | < 20 | – | – | –
9 | CCCCCCCCc1ccc(-c2noc([C@@H]3CCN3C(=N)N)n2)cc1 [Compound 7j, (S)-2-(3-(4-Octylphenyl)-1,2,4-oxadiazol-5-yl)azetidine-1-carboximidamide Hydrochloride] | – | – | – | – | Ki [3]: 1000 nM
10 | CCCCCCCCc1ccc(-c2noc(C3CN(C(=N)N)C3)n2)cc1.Cl [Compound 20a, Amino(3-(3-(4-octylphenyl)-1,2,4-oxadiazol-5-yl)azetidin-1-yl)methaniminium Chloride] | – | – | essentially inactive | essentially inactive | –
11 | CCCCCCCCc1ccc(-c2noc([C@@H]3CCN(C(=N)N)C3)n2)cc1.Cl [Compound 20b, (R)-Amino(3-(3-(4-octylphenyl)-1,2,4-oxadiazol-5-yl)-pyrrolidin-1-yl)methaniminium Chloride] | – | – | essentially inactive | essentially inactive | –
12 | CCCCCCCCc1ccc(CNC(=O)[C@@H]2CCCN2C(=N)N)cc1.O=C(O)C(F)(F)F [Compound 31, (S)-Amino(2-((4-octylbenzyl)carbamoyl)pyrrolidin-1-yl)-methaniminium 2,2,2-Trifluoroacetate] | – | – | no significant inhibitory effect | no significant inhibitory effect | –

— publication PMC4557804 (Journal of medicinal chemistry, 2015)
